The text below walks through data of ChEMBL document CHEMBL3826894, “Structural modification of luteolin from Flos Chrysanthemi leads to increased tumor cell growth inhibitory activity” (Bioorg Med Chem Lett, 2016).

Bounds are passed on as bounds.

Test [1] is described as follows: Cytotoxicity against human HL60 cells assessed as inhibition of cell growth at 100 uM after 72 hrs by MTT assay. The format is functional. The conditions noted are these: HL-60, 72 h, read-out: GI. A general note: Tetrazolium assays rely on reduction of a dye to a coloured formazan, in cell work by metabolically active cells.
A short description of test [2]: Cytotoxicity against human HL60 cells assessed as reduction in cell viability after 72 hrs by MTT assay. The format is functional, cell-based. As to conditions: HL-60, 72 h.
Test [3] deals with T1, Apoptosis regulator Bcl-2 (Homo sapiens, UniProt P10415). The experiment in a line: Inhibition of Bcl-2 (unknown origin) using FAM-Bid peptide as substrate at 50 uM by fluorescence polarization-based assay.
T1 sequence (P10415 whole entry): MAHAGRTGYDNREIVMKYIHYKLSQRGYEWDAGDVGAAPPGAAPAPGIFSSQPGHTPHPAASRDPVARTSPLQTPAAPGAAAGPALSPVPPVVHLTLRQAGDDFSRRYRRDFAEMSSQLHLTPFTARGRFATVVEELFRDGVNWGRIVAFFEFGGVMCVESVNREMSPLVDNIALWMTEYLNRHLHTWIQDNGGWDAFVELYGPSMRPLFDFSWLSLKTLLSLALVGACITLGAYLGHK
Test [4] addresses T1, Apoptosis regulator Bcl-2. The experiment in a line: Inhibition of Bcl-2 (unknown origin) using FAM-Bid peptide as substrate by fluorescence polarization-based assay. In general terms: Fluorescence polarisation rises when a labelled molecule tumbles more slowly, as on binding a larger partner.
Test [5] concerns the target T2, Bcl-2-like protein 1 (Homo sapiens, UniProt Q07817). The experiment in a line: Inhibition of Bcl-XL (unknown origin) using FAM-Bid peptide as substrate at 50 uM by fluorescence polarization-based assay.
The target in test [6] is T2, Bcl-2-like protein 1. The experiment in a line: Inhibition of Bcl-XL (unknown origin) using FAM-Bid peptide as substrate by fluorescence polarization-based assay.
The subject of test [7] is HEK293. The experiment in a line: Cytotoxicity against human HEK293 cells assessed as reduction in cell viability after 72 hrs by MTT assay. The format is cell-based. As to conditions: HEK293, 72 h.

T2 sequence (Q07817 whole entry): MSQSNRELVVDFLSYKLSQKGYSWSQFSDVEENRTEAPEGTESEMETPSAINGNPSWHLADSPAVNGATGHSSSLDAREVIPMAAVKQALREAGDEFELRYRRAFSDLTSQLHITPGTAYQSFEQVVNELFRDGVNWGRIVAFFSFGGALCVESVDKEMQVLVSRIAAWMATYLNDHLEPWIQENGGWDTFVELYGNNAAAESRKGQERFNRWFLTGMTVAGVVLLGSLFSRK

Turning to `COc1cc(O)c2c(=O)cc(-c3cc(O)c(O)cc3Cc3ccccc3)oc2c1`, the inhibition of growth at 100 µM in test [1] turned out to be 82%. Besides, in test [2], the IC50 was found to be 14.9 µM. Moreover, the inhibition in test [3] and in test [5] was 100% in each case. The inhibition constant Ki amounted to 1.3 µM in test [4] and 2.5 µM in test [6].
Regarding `COc1cc(O)c2c(=O)cc(-c3cc(O)c(O)cc3Cc3ccc(C)cc3)oc2c1`, the inhibition of growth at 100 µM in test [1] stood at 96.4%. For the same compound, in test [2], the concentration for half-maximal inhibition (IC50) is 10.9 µM.
For `COc1cc(O)c2c(=O)cc(-c3cc(O)c(O)cc3Cc3cccc(Cl)c3)oc2c1`, in that order: 85.5% and 10.3 µM.
For `COc1cc(O)c2c(=O)cc(-c3cc(O)c(O)c(Cc4cccc(Cl)c4)c3)oc2c1`, in that order: 85.2% and 2.92 µM.
As to `Cc1ccccc1Cc1cc(-c2cc(=O)c3c(O)cc(O)cc3o2)cc(O)c1O`, the inhibition of growth at 100 µM in test [1] stood at 31.5%. In test [2], the half-maximal inhibitory concentration (IC50) is greater than 100 µM.
Take `COc1cc(O)c2c(=O)cc(-c3cc(O)c(O)cc3Cc3cccc(C)c3)oc2c1`: the inhibition of growth at 100 µM in test [1] worked out at 86.1%. Also, the figures for the IC50 in test [2] and in test [7] were 9.97 µM and 74.7 µM, respectively.
On to `O=c1cc(-c2cc(O)c(O)cc2Cc2cccc(Cl)c2)oc2cc(O)cc(O)c12`, for which, in test [1], the inhibition of growth at 100 µM was 65.2%. Also, the IC50 in test [2] turned out to be 64.4 µM.
Take `O=c1cc(-c2ccc(O)c(O)c2)oc2cc(O)cc(O)c12` [LUTEOLIN]: in test [1], the inhibition of growth at 100 µM is 44%. Also, the IC50 in test [2] was greater than 100 µM. Besides, the figures for the inhibition in test [3] and in test [5] were 46% and 49%, respectively.
`COc1cc(O)c2c(=O)cc(-c3cc(O)c(O)cc3Cc3ccccc3C)oc2c1`: the inhibition of growth at 100 µM in test [1] is 90.2%. The IC50 in test [2] is 14.9 µM.
Take `Cc1cccc(Cc2cc(-c3cc(=O)c4c(O)cc(O)cc4o3)cc(O)c2O)c1`: the inhibition of growth at 100 µM in test [1] is 71.9%. In addition, the IC50 in test [2] was determined as 20.9 µM.
For `COc1cc(O)c2c(=O)cc(-c3cc(O)c(O)c(Cc4ccccc4)c3)oc2c1` the same measures were 37.5% and greater than 100 µM.
For `Cc1ccc(Cc2cc(O)c(O)cc2-c2cc(=O)c3c(O)cc(O)cc3o2)cc1`, the inhibition of growth at 100 µM in test [1] was 19.9%. Moreover, the half-maximal inhibitory concentration (IC50) in test [2] is greater than 100 µM.
Take `O=c1cc(-c2cc(O)c(O)cc2Cc2ccccc2)oc2cc(O)cc(O)c12`: in test [1], the inhibition of growth at 100 µM is 80%. The IC50 stood at 35.9 µM in test [2] and 90.7 µM in test [7]. In addition, the inhibition is 96% in test [3] and 70% in test [5]. In addition, the Ki in test [4] came to 4.6 µM; in test [6], 8.4 µM.
Regarding `COc1cc(O)c2c(=O)cc(-c3cc(O)c(O)c(Cc4cccc(C)c4)c3)oc2c1`, the inhibition of growth at 100 µM in test [1] came to 55%. In test [2], the half-inhibitory concentration (IC50) turned out to be 63 µM.
For the compound `Cc1cc2c(C(C)C)c(O)c(O)c(C=O)c2c(O)c1-c1c(C)cc2c(C(C)C)c(O)c(O)c(C=O)c2c1O` [GOSSYPOL], in test [1], the inhibition of growth at 100 µM was 92%. Further, the results for the IC50 in test [2] and in test [7] were 6.6 µM and 11 µM, respectively. Moreover, the inhibition in test [3] and in test [5] was 100% in each case. In test [6], this compound yielded a Ki of 0.31 µM.
Take `COc1cc(O)c2c(=O)cc(-c3cc(O)c(O)c(Cc4ccccc4C)c3)oc2c1`: the inhibition of growth at 100 µM in test [1] turned out to be 68.9%. The IC50 in test [2] stood at 14.8 µM.
With `O=c1cc(-c2cc(O)c(O)c(Cc3cccc(Cl)c3)c2)oc2cc(O)cc(O)c12`, the inhibition of growth at 100 µM in test [1] came out at 76.4%. Besides, in test [2], the half-inhibitory concentration (IC50) amounted to 28.8 µM.
For `O=c1cc(-c2cc(O)c(O)c(Cc3ccccc3Cl)c2)oc2cc(O)cc(O)c12`, in that order: 30.6% and greater than 100 µM.
For `COc1cc(O)c2c(=O)cc(-c3cc(O)c(O)c(Cc4ccccc4Cl)c3)oc2c1`, in that order: 80.8% and 13.9 µM.
For `O=c1cc(-c2cc(O)c(O)c(Cc3ccc(Cl)cc3)c2)oc2cc(O)cc(O)c12`, in that order: 48.6% and greater than 100 µM.
For the compound `COc1cc(O)c2c(=O)cc(-c3cc(O)c(O)cc3Cc3ccc(Cl)cc3)oc2c1`, in test [1], the inhibition of growth at 100 µM was 92.1%. The IC50 in test [2] came out at 11.7 µM.
Regarding `COc1cc(O)c2c(=O)cc(-c3cc(O)c(O)cc3Cc3ccccc3Cl)oc2c1`, the inhibition of growth at 100 µM in test [1] was determined as 85.8%. In addition, the IC50 in test [2] stood at 20.5 µM.
For `O=c1cc(-c2cc(O)c(O)cc2Cc2ccc(Cl)cc2)oc2cc(O)cc(O)c12`, in that order: 100% and 7.05 µM.
`O=c1cc(-c2cc(O)c(O)cc2Cc2ccccc2Cl)oc2cc(O)cc(O)c12`: the inhibition of growth at 100 µM in test [1] turned out to be 73.4%. Moreover, in test [2], the IC50 worked out at 41.8 µM.
On to `O=c1cc(-c2cc(O)c(O)c(Cc3ccccc3)c2)oc2cc(O)cc(O)c12`, for which the inhibition of growth at 100 µM in test [1] is 78%. Also, the IC50 in test [2] was found to be 44 µM.
For `Cc1ccc(Cc2cc(-c3cc(=O)c4c(O)cc(O)cc4o3)cc(O)c2O)cc1` the same measures were 49.1% and 100 µM.

For orientation: IC50 means the point on the concentration scale where inhibition reaches its midpoint. As a reminder, the inhibition is the percentage by which the read-out fell short of the control. Low readings indicate a weak effect, high ones a strong effect. Broadly, the Ki is the equilibrium dissociation constant of an inhibitor or competing ligand from its target. Lower therefore signals a stronger hold on the target.
